Laboratory results reported in patent US12303509B2, “Compounds for the treatment of BRAF-associated diseases and disorders” (Pfizer Inc., priority 2020, dated 2025).
Structures can show the parent of a compound that is named as a salt. Where two headings read alike, the source gives them in different places.

Key:
[1] = molecular target: full-length FLAG-tagged B-Raf(V600E) (Homo sapiens (Human), UniProt P15056, V600E); test: BRAF V600E enzyme assay (TR-FRET competitive displacement); type: binding
How it was run: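 TR-FRET tracer competition: compound (top dose 10 μM, 3-fold, 11 points) incubated 60 min at ambient temperature with FLAG-tagged full-length B-Raf(V600E) (5 nM), Eu anti-FLAG cryptate (0.5 nM) and tracer (50 nM), pH 7.4 HEPES/MgCl2 buffer. 665/615 ratio converted to percent of control; IC50 where fitted curve crosses 50 POC.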

A375 cells = test: Cellular phospho-ERK inhibition assay in A375 cells; type: cell-based; conditions: Homo sapiens, A-375, A375 cells (head prints A357), 2 hours treatment, read-out: A357 cell IC50
How it was run: (§1)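 In Cell Western detection of phospho-ERK1/2 (Thr202/Tyr204) over GAPDH after 2 h compound exposure (66 pM to 10 μM, 9 points, 0.25% DMSO) of A375 cells in DMEM or H1755 cells in RPMI, both with 10% FBS. Percent of control set by DMSO and 10 μM binimetinib; 4-parameter IC50.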

BCRP = BCRP (Homo sapiens (Human), UniProt Q9UNQ0); test: BCRP MDCKII permeability assay: efflux ratio; type: in vitro ADME; conditions: dog
Procedure: BCRP transfected MDCKII cells were cultured and plated according to manufacturer's recommendations. Assay conditions included with and without the BCRP-specific inhibitor, KO143, at a concentration of 0.3 μM to ascertain the contribution of BCRP to the efflux value of the test compound.
Both positive and negative controls were used to assess functionality of P-gp or BCRP efflux in the assays. […] Final organic concentration in the assay was 1%. All dosing solutions contained 10 μM lucifer yellow to monitor LLC-PK1 or MDCKII cell monolayer integrity.
For the apical to basolateral determination (A to B), 75 μL of the test article in transport buffer were added to the apical side of the individual transwells and 250 μL of basolateral media, without compound or lucifer yellow, were added to each well. For the basolateral to apical determination (B to A), 250 μL of test article in transport buffer were added to each well and 75 μL transport buffer, without compound or lucifer yellow, were added to each transwell. All tests were performed in triplicate, and each compound was tested for both apical to basolateral and basolateral to apical transport. The plates were incubated for 2 hours on a Lab-Line Instruments Titer Orbital Shaker (VWR, West Chester, PA) at 50 rpm and 37° C. with 5% CO2. All culture plates were removed from the incubator and 50 μL of media were removed from the apical and basolateral portion of each well and added to 150 μL of 1 μM labetalol in 2:1 acetonitrile (acetonitrile): H2O, v/v.
These values were accepted when found to be below 2% for apical to basolateral and 5% basolateral to apical flux across the MDR1-transfected LLC-PK1 or BCRP-transfected MDCKII cell monolayers. The plates were sealed and the contents of each well analyzed by LC-MS/MS. The compound concentrations were determined from the ratio of the peak areas of the compound to the internal standard (labetalol) in comparison to the dosing solution.
The LC-MS/MS system was comprised of an HTS-PAL autosampler (Leap Technologies, Carrboro, NC), an HP1200 HPLC (Agilent, Palo Alto, CA), and a MDS Sciex 4000 Q Trap system (Applied Biosystems, Foster City, CA). […] The total run time, including re-equilibration, for a single injection was 1.2 minutes. Mass spectrometric detection of the analytes was accomplished using the ion spray positive mode.
An efflux ratio is calculated from the mean apical to basolateral (A-B) Papp data and basolateral to apical (B-A) Papp data using the following equation: Efflux ratio=Papp(B-A)/Papp(A-B)

[2] = MDR1 LLC-PK1 and BCRP MDCKII permeability assay: permeability coefficient (Papp); type: in vitro ADME
From the text: (§2) Final organic concentration in the assay was 1%.

H1755 cells = test: Cellular phospho-ERK inhibition assay in H1755 cells; type: cell-based; conditions: Homo sapiens, NCI-H1755, 2 hours treatment, read-out: H1755 Cell IC50
How it was run: as §1

P-gp (MDR1) = P-gp (MDR1) (Homo sapiens (Human), UniProt P08183); test: MDR1 LLC-PK1 permeability assay: efflux ratio; type: in vitro ADME; conditions: pig
From the text: as §2

[3] = averaged IC50, TR-FRET tracer displacement, 60 min

P-gp (MDR1), sequence (P08183 whole entry, species assumed): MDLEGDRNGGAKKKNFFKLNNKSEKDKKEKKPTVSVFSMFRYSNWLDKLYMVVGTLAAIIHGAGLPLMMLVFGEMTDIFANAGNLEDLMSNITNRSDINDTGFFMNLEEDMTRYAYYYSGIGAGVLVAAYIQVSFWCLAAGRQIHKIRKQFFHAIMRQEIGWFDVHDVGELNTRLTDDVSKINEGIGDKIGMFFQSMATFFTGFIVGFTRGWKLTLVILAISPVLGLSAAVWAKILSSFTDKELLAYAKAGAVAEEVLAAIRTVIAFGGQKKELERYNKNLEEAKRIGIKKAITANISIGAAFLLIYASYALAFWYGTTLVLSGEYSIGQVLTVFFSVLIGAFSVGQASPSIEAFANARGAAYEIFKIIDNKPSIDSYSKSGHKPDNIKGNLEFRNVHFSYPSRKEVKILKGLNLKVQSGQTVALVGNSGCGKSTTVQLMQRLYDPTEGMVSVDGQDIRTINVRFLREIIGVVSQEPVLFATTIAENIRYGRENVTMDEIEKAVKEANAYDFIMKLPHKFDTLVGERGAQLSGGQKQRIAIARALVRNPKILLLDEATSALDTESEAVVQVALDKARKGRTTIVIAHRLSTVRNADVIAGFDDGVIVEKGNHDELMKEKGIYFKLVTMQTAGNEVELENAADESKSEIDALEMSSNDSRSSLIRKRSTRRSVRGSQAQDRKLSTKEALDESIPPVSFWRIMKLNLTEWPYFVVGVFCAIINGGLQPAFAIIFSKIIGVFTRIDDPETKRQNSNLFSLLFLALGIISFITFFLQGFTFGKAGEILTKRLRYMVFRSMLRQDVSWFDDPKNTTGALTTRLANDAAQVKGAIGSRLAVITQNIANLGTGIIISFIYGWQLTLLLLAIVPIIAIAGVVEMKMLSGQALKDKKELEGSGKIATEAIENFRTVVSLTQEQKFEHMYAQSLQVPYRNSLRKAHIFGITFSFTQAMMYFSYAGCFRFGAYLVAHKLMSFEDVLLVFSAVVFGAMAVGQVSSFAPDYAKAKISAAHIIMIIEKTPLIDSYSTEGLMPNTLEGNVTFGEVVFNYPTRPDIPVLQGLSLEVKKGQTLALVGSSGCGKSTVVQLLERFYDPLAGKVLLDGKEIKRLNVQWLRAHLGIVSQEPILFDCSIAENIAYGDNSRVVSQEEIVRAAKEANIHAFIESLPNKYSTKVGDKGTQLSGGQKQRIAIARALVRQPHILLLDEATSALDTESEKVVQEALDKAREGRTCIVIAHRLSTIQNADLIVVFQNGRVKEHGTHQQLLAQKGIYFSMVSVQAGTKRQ
BCRP, sequence (Q9UNQ0 whole entry): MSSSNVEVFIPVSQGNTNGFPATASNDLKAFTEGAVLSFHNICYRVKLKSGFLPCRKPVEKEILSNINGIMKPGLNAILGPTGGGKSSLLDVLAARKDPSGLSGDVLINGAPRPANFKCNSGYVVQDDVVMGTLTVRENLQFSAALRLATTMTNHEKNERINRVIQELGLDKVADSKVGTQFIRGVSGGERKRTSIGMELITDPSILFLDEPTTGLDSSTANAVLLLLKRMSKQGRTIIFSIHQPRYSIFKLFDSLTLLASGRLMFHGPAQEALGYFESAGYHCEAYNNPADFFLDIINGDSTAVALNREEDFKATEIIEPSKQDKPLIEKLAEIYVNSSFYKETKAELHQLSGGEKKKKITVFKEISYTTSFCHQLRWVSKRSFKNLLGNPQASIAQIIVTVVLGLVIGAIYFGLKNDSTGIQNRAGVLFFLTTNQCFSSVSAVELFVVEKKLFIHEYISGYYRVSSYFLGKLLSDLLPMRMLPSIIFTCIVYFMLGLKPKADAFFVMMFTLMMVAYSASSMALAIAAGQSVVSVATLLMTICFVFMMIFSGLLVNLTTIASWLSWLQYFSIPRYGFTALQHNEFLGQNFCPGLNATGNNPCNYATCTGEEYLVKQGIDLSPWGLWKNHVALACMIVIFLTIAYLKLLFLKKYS
full-length FLAG-tagged B-Raf(V600E), sequence (P15056 whole entry V600E): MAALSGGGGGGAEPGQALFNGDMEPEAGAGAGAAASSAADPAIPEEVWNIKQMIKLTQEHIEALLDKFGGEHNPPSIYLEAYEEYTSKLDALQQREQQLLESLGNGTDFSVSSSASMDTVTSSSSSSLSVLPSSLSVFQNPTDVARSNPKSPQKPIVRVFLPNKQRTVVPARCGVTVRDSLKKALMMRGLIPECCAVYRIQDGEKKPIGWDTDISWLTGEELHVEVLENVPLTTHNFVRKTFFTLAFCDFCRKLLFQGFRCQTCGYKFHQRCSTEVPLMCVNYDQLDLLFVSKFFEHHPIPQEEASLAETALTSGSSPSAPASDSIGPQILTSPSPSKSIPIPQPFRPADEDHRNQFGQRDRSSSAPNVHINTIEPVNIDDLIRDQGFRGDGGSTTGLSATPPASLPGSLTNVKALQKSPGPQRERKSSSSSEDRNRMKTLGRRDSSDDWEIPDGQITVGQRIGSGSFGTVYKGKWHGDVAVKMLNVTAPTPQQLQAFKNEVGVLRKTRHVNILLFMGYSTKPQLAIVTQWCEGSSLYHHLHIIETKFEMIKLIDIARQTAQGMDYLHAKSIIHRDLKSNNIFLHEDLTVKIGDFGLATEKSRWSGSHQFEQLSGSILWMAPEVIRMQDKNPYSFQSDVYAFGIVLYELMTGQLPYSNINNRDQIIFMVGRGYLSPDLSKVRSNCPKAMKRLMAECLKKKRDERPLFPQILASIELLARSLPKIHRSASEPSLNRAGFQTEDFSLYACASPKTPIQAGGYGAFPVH

Compound	IC50 [1, 3] [nM]	IC50 (A375 cells) [nM]	efflux ratio at 2 h, 1 µM (BCRP)	Papp at 2 h, 1 µM [2] [×10⁻⁶ cm/s]	IC50 (H1755 cells) [nM]	efflux ratio at 2 h, 1 µM (P-gp (MDR1))	IC50 [1] [nM]
Cn1cnc2ccc(Nc3c(F)ccc(NS(=O)(=O)N4CC(F)(F)C4)c3Cl)c(F)c2c1=O [Example 136, N-(2-chloro-4-fluoro-3-((5-fluoro-3-methyl-4-oxo-3,4-dihydroquinazolin-6-yl)amino)phenyl)-3,3-difluoroazetidine-1-sulfonamide]	6	7	18.3	24	89	3	
Cn1cnc2ccc(Oc3c(F)ccc(NS(=O)(=O)N4CCC(F)(F)C4)c3Cl)c(Cl)c2c1=O [Example 61, N-(2-chloro-3-((5-chloro-3-methyl-4-oxo-3,4-dihydroquinazolin-6-yl)oxy)-4-fluorophenyl)-3,3-difluoropyrrolidine-1-sulfonamide]		25	3.3	29	194	2.2	2
CO[C@@H]1CCN(S(=O)(=O)Nc2cc(F)c(F)c(Nc3ccc4ncn(C)c(=O)c4c3F)c2Cl)C1 [Example 47, (R)-N-(2-chloro-4,5-difluoro-3-((5-fluoro-3-methyl-4-oxo-3,4-dihydroquinazolin-6-yl)amino)phenyl)-3-methoxypyrrolidine-1-sulfonamide trifluoroacetate]	2	2	2.5	26	23	3.6	
CO[C@@H]1CCN(S(=O)(=O)Nc2ccc(F)c(Nc3ccc4ncn(C)c(=O)c4c3F)c2Cl)C1 [Example 5, (R)-N-(2-chloro-4-fluoro-3-((5-fluoro-3-methyl-4-oxo-3,4-dihydroquinazolin-6-yl)amino)phenyl)-3-methoxypyrrolidine-1-sulfonamide]	14	4	3.4	27	20	3.8	
CO[C@@H]1CCN(S(=O)(=O)Nc2ccc(F)c(Nc3ccc4ncn(C)c(=O)c4c3C)c2Cl)C1 [Example 1, (R)-N-(2-chloro-3-((3,5-dimethyl-4-oxo-3,4-dihydroquinazolin-6-yl)amino)-4-fluorophenyl)-3-methoxypyrrolidine-1-sulfonamide]	60	32	1.4	31	103	1.7	
Cn1cnc2ccc(Oc3c(F)ccc(NS(=O)(=O)N4CC5CC4C5)c3Cl)c(F)c2c1=O [Example 49, N-(2-chloro-4-fluoro-3-((5-fluoro-3-methyl-4-oxo-3,4-dihydroquinazolin-6-yl)oxy)phenyl)-2-azabicyclo[2.1.1]hexane-2-sulfonamide]	2	3	1	30	70	1.4	
CO[C@@H]1CCN(S(=O)(=O)Nc2cc(F)c(F)c(Nc3ccc4ncn(C)c(=O)c4c3C)c2Cl)C1 [Example 99, (R)-N-(2-chloro-3-((3,5-dimethyl-4-oxo-3,4-dihydroquinazolin-6-yl)amino)-4,5-difluorophenyl)-3-methoxypyrrolidine-1-sulfonamide]	5	33	1.4	34	100	1.7	
Cc1c(Nc2c(F)ccc(NS(=O)(=O)N3CC[C@@H](F)C3)c2F)ccc2ncn(C)c(=O)c12 [Example 114, (R)-N-(3-((3,5-dimethyl-4-oxo-3,4-dihydroquinazolin-6-yl)amino)-2,4-difluorophenyl)-3-fluoropyrrolidine-1-sulfonamide trifluoroacetate]	16	36	5.2	31	174	2.2	
Cn1cnc2ccc(Nc3cc(Cl)cc(NS(=O)(=O)N4CC[C@@H](F)C4)c3F)c(F)c2c1=O [Example 58, (R)-N-(5-chloro-2-fluoro-3-((5-fluoro-3-methyl-4-oxo-3,4-dihydroquinazolin-6-yl)amino)phenyl)-3-fluoropyrrolidine-1-sulfonamide trifluoroacetate]	3	6	7.3	27	32	5.3	
CO[C@@H]1CCN(S(=O)(=O)Nc2cc(F)cc(Nc3ccc4ncn(C)c(=O)c4c3C)c2Cl)C1 [Example 152, (R)-N-(2-chloro-3-((3,5-dimethyl-4-oxo-3,4-dihydroquinazolin-6-yl)amino)-5-fluorophenyl)-3-methoxypyrrolidine-1-sulfonamide]	29	305	1.4	37	329	1.3	
Cn1cnc2ccc(Nc3c(F)ccc(NS(=O)(=O)N4C[C@@H](F)[C@@H](F)C4)c3Cl)c(F)c2c1=O [Example 21, cis-N-(2-chloro-4-fluoro-3-((5-fluoro-3-methyl-4-oxo-3,4-dihydroquinazolin-6-yl)amino)phenyl)-3,4-difluoropyrrolidine-1-sulfonamide]	3	7	13	26	33	5.6	
Cc1c(Oc2c(F)ccc(NS(=O)(=O)N3CC[C@@H](OC(F)F)C3)c2Cl)ccc2ncn(C)c(=O)c12.O=C(O)C(F)(F)F [Example 57, (R)-N-(2-chloro-3-((3,5-dimethyl-4-oxo-3,4-dihydroquinazolin-6-yl)oxy)-4-fluorophenyl)-3-(difluoromethoxy)pyrrolidine-1-sulfonamide trifluoroacetate]		27	0.9	25	61	0.9	3
Cc1c(Nc2c(F)ccc(NS(=O)(=O)N3CCCC3)c2F)ccc2ncn(C)c(=O)c12 [Example 113, N-(3-((3,5-dimethyl-4-oxo-3,4-dihydroquinazolin-6-yl)amino)-2,4-difluorophenyl)pyrrolidine-1-sulfonamide trifluoroacetate]	38	40	1.9	18	358	1.3	
Cc1c(Nc2cc(F)cc(NS(=O)(=O)N3CCCC3)c2F)ccc2ncn(C)c(=O)c12 [Example 154, N-(3-((3,5-dimethyl-4-oxo-3,4-dihydroquinazolin-6-yl)amino)-2,5-difluorophenyl)pyrrolidine-1-sulfonamide]	28	404	1.3	26	879	1.4	
CCN(C)S(=O)(=O)Nc1cc(F)c(F)c(Nc2ccc3ncn(C)c(=O)c3c2F)c1Cl [Example 45, N-(2-chloro-4,5-difluoro-3-((5-fluoro-3-methyl-4-oxo-3,4-dihydroquinazolin-6-yl)phenyl)-(N-ethyl-N-methyl)-sulfamide trifluoroacetate]	4	4	1.6	40	102	1.6	
